For assay [1], the system named is atrial natriuretic factor (ANF). Nature of the assay: Transcription of atrial natriuretic factor by RT-PCR in neonatal cardiomyocytes. Type of assay: cell-based, rat. The note with it: 72 hr stimulation. The method, then: RNA was prepared using Trizol reagent (Invitrogen) from neonatal rat ventricular cardiomyocytes after 72 hr of stimulation. Complementary DNA was synthesized from 2 μg RNA with the SuperScriptIII kit (Invitrogen) using oligo-dT primers. One μL cDNA was used as template for 20 μL PCR-reactions (95° C. for 2 min, 30 cycles of 95° C. for 2 min, 55° C. for 2 min, 72° C. for 5 min, followed by 72° C. for 10 min). Oligonucleotide primers used for detection of ANF were F: 5′-[…]-3′ (Seq ID No. 2), R: 5′-[…]-3′ (Seq ID No. 3), β-actin were F: 5′-[…]-3′ (Seq ID No. 4), R: 5′-[…]-3′ (Seq ID No. 5), […] were F: 5′-[…]-3′ (Seq ID No. 6), R: 5′-[…]-3′ (Seq ID No. 7); SMA were F: 5′-[…]-3′ (Seq ID No. 8), R: 5′-[…]-3′ (Seq ID No. 9); SERCA2 were F: 5′-[…]-3′ (Seq ID No. 10), R: 5′-[…]-3′ (Seq ID No. 11), and for GAPDH: 5′-[…]-3′ (Seq ID No. 12), R: 5′-[…]-3′ (Seq ID No. 13).

For assay [2], the system named is adult ventricular cardiomyocytes. Nature of the assay: Transcription of fetal gene program (RT-PCR) in adult ventricular cardiomyocytes. Type of assay: cell-based, rat.
For assay [3], the system named is differentiated cardiomyocytes. The assay can be described thus: Hypertrophy by [3H]leucine uptake. The assay is classed as cell-based, rat. Conditions: phenylephrine 10 mM [sic]; all time points tested. An excerpt: Induction of the fetal gene program is accompanied by increased protein synthesis leading to cardiomyocyte hypertrophy. We assessed cardiomyocyte hypertrophy by measuring uptake of [^3H]leucine.

The test system of assay [4] is primary adult rat ventricular cardiomyocytes. The assay can be described thus: DNA synthesis (BrdU uptake, immunofluorescence) in primary adult rat ventricular cardiomyocytes. Type of assay: cell-based. An excerpt:
Primary neonatal rat ventricular cardiomyocytes were isolated using the Neomyts kit (Cellutron, Highland Park, N.J.), seeded at a density of 10^5 cells/cm^2 onto gelatin-coated cover slips, stimulated for 3 days, and labeled with BrdU for the terminal 2 days. Primary adult ventricular cardiomyocytes were isolated from male (300 gm) Wistar rats (Charles River Laboratories) and maintained as described (Engel, F. B. et al. p38 MAP kinase inhibition enables proliferation of adult mammalian cardiomyocytes. Genes Dev 19, 1175-87 (2005)). Adult cardiomyocytes were stimulated daily for 9 days and labeled with 30 μM BrdU for the terminal 3 days. Cardiomyocytes were stimulated with periostin (500 ng/mL) and FGF (100 ng/mL). […] The vehicle used to dissolve factors or chemicals was added to unstimulated samples, which were then processed together with the test samples. DNA-synthesis was analyzed by visualization of BrdU uptake and cytokinesis was determined by detection of the cleavage furrow and the midbody with an antibody against aurora B kinase as described (Engel, F. B. et al. p38 MAP kinase inhibition enables proliferation of adult mammalian cardiomyocytes. Genes Dev 19, 1175-87 (2005)). Signals were visualized with secondary antibodies conjugated to Alexa 488, Alexa 546, Alexa 594, and Alexa 647 (Invitrogen). […] For image acquisition, the value for γ was set at 1 and the lookup table settings were linear. Primary adult rat ventricular cardiomyocytes were grown on gridded cover slips (Electron Microscopy Services, Ft. Washington, Pa.) and imaged in phase contrast at 10× magnification. Cardiomyocytes were transduced with an adenovirus leading to nuclear expression of histone2B-GFP (Shi, Q. & King, R. W. Nature 437, 1038-42 (2005)) under control of the chicken troponin T promoter ([…]. Am J Physiol Cell Physiol 286, […]-64 (2004)). Nuclei were visualized at 10× magnification with a mercury-arc lamp dimmed to 1.5% with a neutral density filter. […] Images of BrdU-positive cardiomyocytes were matched with the corresponding images from before stimulation. For quantification, differentiated cardiomyocytes were defined as striated rod-shaped structures with length/width ratio>1.5.

Assay [5] shares this test system. Nature of the assay: Cytokinesis (aurora B kinase) in primary adult rat ventricular cardiomyocytes. Type of assay: cell-based. Conditions: 9 days stimulation. From the text: (§1) Primary neonatal rat ventricular cardiomyocytes were isolated using the Neomyts kit (Cellutron, Highland Park, N.J.), seeded at a density of 10^5 cells/cm^2 onto gelatin-coated cover slips, stimulated for 3 days, and labeled with BrdU for the terminal 2 days. Primary adult ventricular cardiomyocytes were isolated from male (300 gm) Wistar rats (Charles River Laboratories) and maintained as described (Engel, F. B. et al. p38 MAP kinase inhibition enables proliferation of adult mammalian cardiomyocytes. Genes Dev 19, 1175-87 (2005)). Adult cardiomyocytes were stimulated daily for 9 days and labeled with 30 μM BrdU for the terminal 3 days. Cardiomyocytes were stimulated with periostin (500 ng/mL) and FGF (100 ng/mL). Inhibiting antibodies were added at a concentration of 10 μg/mL, cRGD at 10 μM, U0126 at 10 μM, PD98059 at 1 μM, LY294002 at 10 μM, and Wortmannin at 0.1 μM 30 min prior to stimulation. The vehicle used to dissolve factors or chemicals was added to unstimulated samples, which were then processed together with the test samples.
(§2) DNA-synthesis was analyzed by visualization of BrdU uptake and cytokinesis was determined by detection of the cleavage furrow and the midbody with an antibody against aurora B kinase as described (Engel, F. B. et al. p38 MAP kinase inhibition enables proliferation of adult mammalian cardiomyocytes. Genes Dev 19, 1175-87 (2005)). Signals were visualized with secondary antibodies conjugated to Alexa 488, Alexa 546, Alexa 594, and Alexa 647 (Invitrogen). Nuclei were visualized with 4′,6′-diamidino-2-phenylindole (DAPI, Invitrogen). For image acquisition, the value for γ was set at 1 and the lookup table settings were linear.

The subject of assay [6] is primary neonatal rat ventricular cardiomyocytes. Nature of the assay: DNA synthesis, mitosis and cytokinesis in primary neonatal rat ventricular cardiomyocytes. Type of assay: cell-based. Conditions: periostin plus FGF.
From the text: as §1, §2

For `CNC[C@H](O)c1cccc(O)c1` [phenylephrine, reference compound], the “transcription of atrial natriuretic factor (ANF)” value in assay [1] is listed as “induced”. In assay [2], the “transcription of SERCA2” value is given as “slightly reduced”; the “transcription of β-MHC, SMA and ANF” value was “increased transcription”. Further, the “[3H]leucine uptake (hypertrophy)” value in assay [3] is recorded as “induced”.

For “FGF: FGF1 provided by R&D Systems; known stimulus of cardiomyocyte DNA synthesis”, the “cardiomyocyte DNA synthesis” value in assay [4] (9 days stimulation (periostin 500 ng/mL, FGF 100 ng/mL), BrdU terminal 3 days) came to 1.3±0.6%. Besides, the “effect on periostin-induced cardiomyocyte DNA synthesis when added” value in assay [4] (FGF 100 ng/ml, SB203580 5 mM or 10 mM as printed) was “increased”. For the same compound, the “cytokinesis, of all differentiated cardiomyocytes” value in assay [5] turned out to be 0.3±0.1%. Further, the “effect of co-stimulation with periostin on DNA synthesis” value in assay [6] is “additive effect”. The “transcription of atrial natriuretic factor (ANF)” value in assay [1] is “induced”.

For the origin of these results see patent US8936806B2, “Periostin induces proliferation of cardiomyocytes and promotes cardiac regeneration” (Children's Medical Center Corporation, priority 2007, dated 2015).
